Assay results taken from patent US7419979B2, “Derivatives of 6-{4-[4-(1H-indole-2-sulphonyl)-piperazin-1-carbonyl-phenyl]}pyradizin-3-one” (AstraZeneca AB, priority 2004, dated 2008).

Target: T1, human FXa (Homo sapiens, UniProt P00742)
T1 construct: human FXa, Haematologic Technologies Inc; purchased Haematologic Technologies Inc
Test: Measurement of Factor Xa Inhibition (chromogenic substrate method)
Format: biochemical
Details: inhibition of Factor Xa activity, screen a); chromogenic substrate S-2765, 40 min at 37° C.; specimen results
Protocol: a) Measurement of Factor Xa Inhibition
The FXa inhibitor potency was measured with a chromogenic substrate method, in a Plato 3300 robotic microplate processor (Rosys AG, CH-8634 Hombrechtikon, Switzerland), using 96-well, half-volume microtiter plates (Costar, Cambridge, Mass., USA; Cat No 3690). Stock solutions of test substance in DMSO (72 μL), 10 mmol/L, alternatively 1 mmol/L were diluted serially 1:3 (24+48 μL) with DMSO to obtain ten different concentrations, which were analyzed as samples in the assay, together with controls and blanks. As control sample melagatran was analysed. The dilutions of each test substance were analyzed consecutively, row-wise on the microtiter plate, with wash-cycles between substances to avoid cross-contamination. […] The final assay concentrations were: test substance 0.0068-133, respectively 0.00068-13.3 μmol/L, S-2765 0.40 mmol/L (KM=0.25 mmol/L) and FXa 0.1 nmol/L. The linear absorbance increase at 405 nm during 40 min incubation at 37° C. was used for calculation of percent inhibition for the test samples, as compared to references without inhibitor and/or enzyme. […]

T1 sequence (P00742 235-488 limits assumed): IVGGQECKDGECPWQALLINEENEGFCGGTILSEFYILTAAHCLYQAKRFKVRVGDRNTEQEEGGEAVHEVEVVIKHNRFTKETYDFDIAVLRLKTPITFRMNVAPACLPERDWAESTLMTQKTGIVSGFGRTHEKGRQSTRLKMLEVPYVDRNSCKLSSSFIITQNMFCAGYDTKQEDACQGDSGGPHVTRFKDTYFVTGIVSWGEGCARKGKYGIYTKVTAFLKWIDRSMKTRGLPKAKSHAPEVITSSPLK
T1 sequence (P00742 41-179 partner limits assumed): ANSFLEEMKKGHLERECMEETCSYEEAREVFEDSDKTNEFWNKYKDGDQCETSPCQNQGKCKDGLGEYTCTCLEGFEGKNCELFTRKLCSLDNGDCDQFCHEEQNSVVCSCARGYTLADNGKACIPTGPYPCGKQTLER

Row | Compound | IC50
1 | CNCCn1nc(-c2ccc(C(=O)N3CCN(S(=O)(=O)c4cc5cc(Cl)ccc5[nH]4)CC3)cc2)ccc1=O [Example 3, 6-{4-[4-(5-Chloro-1H-indole-2-sulphonyl)-piperazine-1-carbonyl]-phenyl}-2-(2-methylamino-ethyl)-2H-pyridazin-3-one] | 55 nM
2 | COCCOCCn1nc(-c2ccc(C(=O)N3CCN(S(=O)(=O)c4cc5cc(Cl)ccc5[nH]4)CC3)cc2)ccc1=O [Example 9, 6-{4-[4-(5-Chloro-1H-indole-2-sulphonyl)-piperazine-1-carbonyl]-phenyl}-2-[2-(2-methoxy-ethoxy)-ethyl]-2H-pyridazin-3-one] | 38 nM
